From US10159663B2, “Substituted macrocycles useful as kinases inhibitors and methods of use thereof” (TELIGENE LTD., priority 2014, dated 2018)
Values after ≈ are worked out from the molar mass of the structure shown. Where two headings read alike, the source gives them in different places.

Key:
[1] = Rate of metabolism in rat whole blood; format: in vitro ADME; conditions: for rate of metabolism (k) in Rat whole blood: 1.0 μM, 37° C., 0-2 h
Method: A Representative Number of Compounds were Tested in Rat Whole Blood to Measure Rate of Metabolism.
Preparation of Stock Solutions: Stock solution of test compound was provided in 100% DMSO. The stock solution for each compound was diluted into 500 μM with a mixture of acetonitrile: PBS buffer (2:8) and then diluted into rat blood (pH 7.4) to achieve a final concentration of 1.0 μM.
Incubation: 1.0 μM of test compound in duplicate was incubated in blood at 37° C. Aliquots of 50 μL sample were collected at 0 h, 0.25 h, 0.5 h, 1 h, and 2 h.
Sample preparation: Reactions were terminated at various time points (0, 0.25, 0.5, 1, 2 h) by adding 150 μL of ice-cold acetonitrile containing an internal standard. Centrifuge the plate (4000 rpm, 15 min). 100 μL of supernatants were transferred into a daughter plate containing 200 μL of H2O and 0.1% formic acid (v/v) in each well. The samples were analyzed with UPLC-MS/MS.
Data analysis: The peak area ratio of test compound to internal standard is plotted as a percentage of the relevant zero time point control (% Remained) for each reaction. The rate of metabolism (k) is the slope of the linear regression from log percentage remaining versus incubation time. The T½ is calculated as −0.693/k.

CYP 3A4 = molecular target: T1, CYP 3A4 (Homo sapiens, UniProt P08684); test: P450 3A4 assay in human liver microsomes; format: in vitro ADME; conditions: for IC50: probe substrate testosterone
T1 construct: Incubation mixtures in duplicate contain pooled human liver microsome (0.1 mg/mL); from tissue; host or cells: pooled human liver microsomes
T1 sequence (P08684 whole entry): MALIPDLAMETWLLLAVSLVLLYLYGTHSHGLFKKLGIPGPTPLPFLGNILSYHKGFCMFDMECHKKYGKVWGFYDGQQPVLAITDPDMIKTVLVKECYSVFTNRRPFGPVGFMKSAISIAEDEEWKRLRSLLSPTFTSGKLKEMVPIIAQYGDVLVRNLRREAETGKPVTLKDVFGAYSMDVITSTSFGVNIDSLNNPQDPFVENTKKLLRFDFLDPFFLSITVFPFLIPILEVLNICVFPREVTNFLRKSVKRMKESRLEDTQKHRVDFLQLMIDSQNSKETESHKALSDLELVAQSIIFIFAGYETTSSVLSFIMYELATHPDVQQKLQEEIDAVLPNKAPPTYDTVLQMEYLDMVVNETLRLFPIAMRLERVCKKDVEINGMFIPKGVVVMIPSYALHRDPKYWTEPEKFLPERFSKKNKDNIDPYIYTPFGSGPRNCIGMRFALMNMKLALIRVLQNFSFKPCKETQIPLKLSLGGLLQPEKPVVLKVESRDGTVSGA
Method: The final concentrations of DMSO and acetonitrile were equal or less than 0.1%.
The column temperature was maintained at ambient temperature (25° C.). […] The flow rate was maintained at 0.6 mL/min.

[2] = Solubility measurement (HPLC); format: physicochemical; conditions: for solubility at 30 min: aqueous buffer, thermodynamic from solid, 25° C.
Method: The compound was diluted with acetonitrile to 100 mL.
The solution was shook for 2 minutes and left for 30 minutes at 25° C. After standing for 30 minutes, precipitate was formed in the bottom of the EP. The solutions was filtered through 0.2 μm membrane filter, and then diluted by 50 times with water.
The standard and sample solutions were injected into the HPLC on a Shim-Pack CLC-ODS C18 column (150 mm×6.0 mm, 5 um) with the same volume. The mobile phase consisted of acetonitrile with 2% trichloromethane-20 mM KH2PO4 buffer (pH=7.0) at a flow rate of 1 mL/minutes (40:60). The detection wavelength is at 264 nm. Calculation: solubility of sample=the concentration of standard×Area of sample×50/Area of standard.

[3] = molecular target: T2, EGFR(L747-E749del, A750P) (Homo sapiens, UniProt P00533, A750P/DEL747-749); test: In vitro kinase assay (kinase-tagged phage, affinity beads, qPCR); format: binding
T2 construct: made in house; host or cells: E. coli BL21-derived host (T7 phage) or HEK-293 cells
T2 sequence (P00533 with tags, fused parts or gaps DEL747-749/A750P): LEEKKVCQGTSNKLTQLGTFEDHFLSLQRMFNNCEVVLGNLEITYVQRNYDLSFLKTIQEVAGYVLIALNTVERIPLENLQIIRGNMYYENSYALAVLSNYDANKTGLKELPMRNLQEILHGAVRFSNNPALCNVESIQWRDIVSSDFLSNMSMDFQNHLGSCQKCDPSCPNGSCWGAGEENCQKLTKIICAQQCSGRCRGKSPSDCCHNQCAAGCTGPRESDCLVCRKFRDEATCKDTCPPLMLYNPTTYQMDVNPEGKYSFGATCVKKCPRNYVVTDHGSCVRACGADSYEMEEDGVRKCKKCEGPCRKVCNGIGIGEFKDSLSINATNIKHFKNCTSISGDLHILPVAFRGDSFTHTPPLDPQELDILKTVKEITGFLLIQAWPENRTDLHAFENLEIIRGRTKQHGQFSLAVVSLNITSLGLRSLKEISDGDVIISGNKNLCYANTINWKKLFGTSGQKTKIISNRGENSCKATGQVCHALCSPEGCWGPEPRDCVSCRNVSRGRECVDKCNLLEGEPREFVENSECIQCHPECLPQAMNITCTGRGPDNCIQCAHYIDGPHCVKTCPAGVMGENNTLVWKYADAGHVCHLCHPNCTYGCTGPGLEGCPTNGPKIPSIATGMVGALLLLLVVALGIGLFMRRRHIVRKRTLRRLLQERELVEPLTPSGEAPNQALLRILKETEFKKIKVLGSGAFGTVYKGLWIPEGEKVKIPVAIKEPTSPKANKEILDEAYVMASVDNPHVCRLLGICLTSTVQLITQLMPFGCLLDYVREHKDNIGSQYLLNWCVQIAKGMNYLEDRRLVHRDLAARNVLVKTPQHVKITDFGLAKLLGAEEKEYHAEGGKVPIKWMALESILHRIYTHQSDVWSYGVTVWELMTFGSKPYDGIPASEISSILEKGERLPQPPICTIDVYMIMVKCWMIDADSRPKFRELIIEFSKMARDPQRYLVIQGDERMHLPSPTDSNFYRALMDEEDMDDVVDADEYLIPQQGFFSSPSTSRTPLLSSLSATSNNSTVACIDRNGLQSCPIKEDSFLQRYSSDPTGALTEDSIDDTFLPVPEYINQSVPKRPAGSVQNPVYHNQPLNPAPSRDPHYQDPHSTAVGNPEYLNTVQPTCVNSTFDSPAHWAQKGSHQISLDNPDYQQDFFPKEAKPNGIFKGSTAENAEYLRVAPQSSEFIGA
Method: (§1) An In Vitro Assay which Determines the Ability of a Test Compound to Inhibit Kinase:
(§2) Kinase-tagged T7 phage strains were prepared in an E. coli host derived from the BL21 strain. E. coli were grown to log-phase and infected with T7 phage and incubated with shaking at 32° C. until lysis. The lysates were centrifuged and filtered to remove cell debris. The remaining kinases were produced in HEK-293 cells and subsequently tagged with DNA for qPCR detection. Streptavidin-coated magnetic beads were treated with biotinylated small molecule ligands for 30 minutes at room temperature to generate affinity resins for kinase assays. The liganded beads were blocked with excess biotin and washed with blocking buffer (SeaBlock (Pierce), 1% BSA, 0.05% Tween 20, 1 mM DTT) to remove unbound ligand and to reduce non-specific binding. […] All reactions were performed in polystyrene 96-well plates in a final volume of 0.135 ml. […] The kinase concentration in the eluates was measured by qPCR.

ERBB4 = molecular target: T3, ERBB4 (Homo sapiens, UniProt Q15303); test: as above; format: binding; conditions: Table A
T3 construct: made in house; host or cells: E. coli BL21-derived host (T7 phage) or HEK-293 cells
T3 sequence (Q15303 26-1308): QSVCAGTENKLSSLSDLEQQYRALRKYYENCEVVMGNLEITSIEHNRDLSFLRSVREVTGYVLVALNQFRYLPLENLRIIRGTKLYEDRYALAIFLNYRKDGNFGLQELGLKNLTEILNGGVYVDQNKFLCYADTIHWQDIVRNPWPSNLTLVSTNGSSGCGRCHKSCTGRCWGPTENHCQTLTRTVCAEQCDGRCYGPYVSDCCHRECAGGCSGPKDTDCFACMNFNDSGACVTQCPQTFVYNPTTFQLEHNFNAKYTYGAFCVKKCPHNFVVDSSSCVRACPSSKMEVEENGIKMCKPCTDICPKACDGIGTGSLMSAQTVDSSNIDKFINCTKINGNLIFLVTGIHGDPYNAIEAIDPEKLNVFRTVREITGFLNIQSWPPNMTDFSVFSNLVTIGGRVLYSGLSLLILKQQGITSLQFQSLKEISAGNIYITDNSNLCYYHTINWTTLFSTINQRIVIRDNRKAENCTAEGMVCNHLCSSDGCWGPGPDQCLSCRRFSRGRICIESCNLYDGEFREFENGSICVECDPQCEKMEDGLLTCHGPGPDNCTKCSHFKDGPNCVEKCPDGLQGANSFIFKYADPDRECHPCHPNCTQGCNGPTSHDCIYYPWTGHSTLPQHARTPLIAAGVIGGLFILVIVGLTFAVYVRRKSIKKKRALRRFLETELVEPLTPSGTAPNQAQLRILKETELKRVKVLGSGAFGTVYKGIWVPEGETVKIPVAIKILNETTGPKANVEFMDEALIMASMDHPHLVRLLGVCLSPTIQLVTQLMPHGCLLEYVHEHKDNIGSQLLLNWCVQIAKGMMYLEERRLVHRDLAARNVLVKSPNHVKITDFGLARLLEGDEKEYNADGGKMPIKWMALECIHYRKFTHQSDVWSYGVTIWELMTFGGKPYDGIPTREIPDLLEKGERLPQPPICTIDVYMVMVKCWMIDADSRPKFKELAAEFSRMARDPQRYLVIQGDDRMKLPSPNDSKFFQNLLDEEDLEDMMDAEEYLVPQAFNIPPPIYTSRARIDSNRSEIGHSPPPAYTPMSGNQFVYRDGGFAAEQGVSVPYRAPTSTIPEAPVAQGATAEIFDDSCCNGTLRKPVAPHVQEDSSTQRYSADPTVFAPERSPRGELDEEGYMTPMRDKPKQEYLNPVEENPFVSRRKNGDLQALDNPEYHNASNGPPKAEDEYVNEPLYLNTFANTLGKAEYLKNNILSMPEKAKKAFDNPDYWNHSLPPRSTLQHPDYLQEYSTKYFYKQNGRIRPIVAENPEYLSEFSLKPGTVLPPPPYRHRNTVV
Method: as §1, §2

NCI-H69 Cell = test: Cell proliferation assay (MTT); format: cell-based; conditions: Homo sapiens, 72 hours treatment
Method: (§3) A Representative Number of Compounds were Assayed Against Different Cancer Cell Lines Such as HCC827 and NCI-H69 Using the Cell Proliferation Assays:
(§4) Cell Proliferation Assays:
(§5) 1. 5×10^3 cells per well in 100 μl of medium were seeded in 96-well plate, while the medium here contained 5% FBS.
(§6) 2. 24 hours later, 100 μl fresh medium was added with various concentrations of compounds into each well, while the medium here was free of FBS.
(§7) 3. After the cells were treated with compounds for 72 hours, 20 μl MTT (5 mg/ml) was added into each well, and then the assay plate was incubated at 37° C. for 4 more hours.
(§8) 4. The assay plate was centrifuged at 800 g for 10 min. The medium was aspirated, 150 μl DMSO was added into each well. The plate was gently shaken for 10 min.
(§9) 5. The absorbance at 570 nm was measured on the plate reader.

HCC827 Cell = test: Cell proliferation assay (MTT); format: cell-based; conditions: Homo sapiens, 72 hours treatment
Method: as §3, §4, §5, §6, §7, §8, §9

[4] = pH 7.0 buffer solution (20 mM), pH 7.0 buffer (20 mM), read-out: Solubility at pH 7.0
[5] = pH 10.0 buffer solution (20 mM), pH 10.0 buffer (20 mM), read-out: Solubility at pH 10.0

rate of metabolism (k) in Rat whole blood [1]	SMILES	Cytochrome P450 3A4 inhibition (DDI risk class) (CYP 3A4)	solubility at 30 min [2, 4] [µg/mL]	solubility at 30 min [2, 5] [µg/mL]	K value compared with PF-06463922 and Compound 10 ([1]; rat whole blood, comparison in words)	inhibitor potency for mutant EGFR (L747-E749del, A750P) [3] [µM]	Kinase Inhibition EGFR(L747-E749del, A750P) ([3]; mutant EGFR, Table A) [µM]	Kinase Inhibition ERBB4 (ERBB4) [µM]	IC50 (CYP 3A4) [µM]	solubility compared with compound A at pH=7.0 ([2]; pH 7.0, comparison in words)	IC50 (NCI-H69 Cell) [µM]	IC50 (HCC827 Cell) [µM]
−0.07473	C[C@H]1Oc2cc(cnc2N)-c2c(nn(C)c2C#N)CN(C)C(=O)c2ccc(F)cc21 [Compound A, (10R)-7-amino-12-fluoro-2,10,16-trimethyl-15-oxo-10,15,16,17-tetrahydro-2H-8,4-(metheno)pyrazolo[4,3-h][2,5,11]-benzoxadiazacyclotetradecine-3-carbonitrile, reference compound]	moderate (3 μM<IC50<10 μM CYP inhibition moderate)	29 (≈ 71.4 µM)	28 (≈ 68.9 µM)								
0.07435	CC(=O)Nc1ncc2cc1O[C@H](C)c1cc(F)ccc1C(=O)N(C)Cc1nn(C)c(C#N)c1-2 [Compound 10, (10R)-7-acetamido-12-fluoro-2,10,16-trimethyl-15-oxo-10,15,16,17-tetrahydro-2H-8,4-(metheno)pyrazolo[4,3-h][2,5,11]-benzoxadiazacyclotetradecine-3-carbonitrile]								14			

SMILES	rate of metabolism (k) in Rat whole blood [1]	Cytochrome P450 3A4 inhibition (DDI risk class) (CYP 3A4)	solubility at 30 min [2, 4] [µg/mL]	solubility at 30 min [2, 5] [µg/mL]	K value compared with PF-06463922 and Compound 10 ([1]; rat whole blood, comparison in words)	inhibitor potency for mutant EGFR (L747-E749del, A750P) [3] [µM]	Kinase Inhibition EGFR(L747-E749del, A750P) ([3]; mutant EGFR, Table A) [µM]	Kinase Inhibition ERBB4 (ERBB4) [µM]	IC50 (CYP 3A4) [µM]	solubility compared with compound A at pH=7.0 ([2]; pH 7.0, comparison in words)	IC50 (NCI-H69 Cell) [µM]	IC50 (HCC827 Cell) [µM]
C[C@H]1Oc2cc(cnc2NC(=O)CN)-c2c(nn(C)c2C#N)CN(C)C(=O)c2ccc(F)cc21 [Compound 6, (10R)-7-(2-aminoacetyl)amino-12-fluoro-2,10,16-trimethyl-15-oxo-10,15,16,17-tetrahydro-2H-8,4-(metheno)pyrazolo[4,3-h][2,5,11]-benzoxadiazacyclotetradecine-3-carbonitrile]	0.6169		91 (≈ 196 µM)	36 (≈ 77.7 µM)	much larger K value	0.42	0.4	5.7	10	much higher solubility	77.1	65.6
